Assay results taken from patent US5869476A, “Pyrimidinone derivatives” (Boryung Pharmaceutical Co., Ltd., priority 1994, dated 1999).
Like-named read-outs stand apart in the source and are kept apart here.

Molecular target: T1, angiotensin II receptor (Oryctolagus cuniculus, UniProt P34976)
T1 construct: The aorta was cut into 3~4 mm to form ring samples; from tissue; host or cells: isolated aorta rings of New Zealand White rabbits
T1 sequence (P34976 1-359): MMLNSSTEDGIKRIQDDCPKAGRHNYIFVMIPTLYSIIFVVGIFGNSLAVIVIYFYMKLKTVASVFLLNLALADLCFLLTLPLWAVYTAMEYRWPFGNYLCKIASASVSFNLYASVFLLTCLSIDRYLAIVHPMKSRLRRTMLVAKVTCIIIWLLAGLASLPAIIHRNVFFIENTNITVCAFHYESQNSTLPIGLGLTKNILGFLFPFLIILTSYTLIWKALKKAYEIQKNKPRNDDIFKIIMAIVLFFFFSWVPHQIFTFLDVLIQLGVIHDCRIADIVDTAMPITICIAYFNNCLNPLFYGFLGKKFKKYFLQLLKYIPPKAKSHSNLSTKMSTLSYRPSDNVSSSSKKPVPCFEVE
Experiment: inhibition of angiotensin II induced contraction of isolated rabbit aorta rings
Assay type: cell-based, New Zealand White rabbit
Conditions: test compound incubated 20 minutes
Procedure: The antagonistic activity of the representative compounds of the invention was evaluated using the methodology describe below.
From New Zealand White rabbits (male or female, 2~2.5 kg), aorta was isolated, and fat and connected tissue were removed therefrom. The aorta was cut into 3~4 mm to form ring samples. The aorta sample was suspended in 20 ml of organ bath (37° C.) containing modified Krebs-Henseleit solution saturated with 95% O2 /5% CO2 (pH 7.4).
The aorta preparation was exposed consecutively to 2 g of tensile strength for 90 minutes intermittently washing the sample with 30 minutes interval and then to 30 mM of KCl to observe contraction response. After washing more than three times, the aorta preparation was again allowed to contract three times for stabilization by adding Angiotensin II ([…]) thereto with 30 minutes interval. The third contraction response to Angiotensin II was considered as control.
10 minutes after the third contraction, the test compound was administered to the aorta preparation, which was incubated for 20 minutes.
Comparing angiotensin II contraction curve obtained from the above inhibition test with that of the control, IC50 (concentration being required to inhibit angiotensin II induced contraction by 50%) was determined for each test compound(Table 1).

[1] = 37° C., pH 7.4, read-out: IC50 (concentration being required to inhibit angiotensin II induced contraction by 50%)

Structure (SMILES)	IC50 [1] [nM]	IC50 (value given in M, read-out: IC50 (concentration being required to inhibit angiotensin II induced contraction by 50%)) [nM]
CCCCc1nc(C)c(CCC(=O)N2CCN(C/C=C/c3ccccc3)CC2)c(=O)n1Cc1ccc(-c2ccccc2-c2nn[nH]n2)cc1 [Compound 83, 2-n-butyl-5-[2'-(4"-trans-cinnamylpiperazino)carbonylethyl]-6-methyl-3-[[2'-(1H-tetrazol-5-yl)biphenyl-4-yl]methyl]-pyrimidin-4-(3H)-one]	151	
CCCCc1nc(C)c(CCC(=O)O)c(=O)n1Cc1ccc(-c2ccccc2-c2nnn[nH]2)cc1 [Compound 25, 2-n-butyl-5-(2'-carboxyethyl)-6-methyl-3-[[2'-(1H-tetrazol-5-yl)-biphenyl-4-yl]methyl]-pyrimidin-4-(3H)-one]	9.43	
CCCCc1nc(CCC)c(CCC(=O)OCC)c(=O)n1Cc1ccc(-c2ccccc2-c2nn[nH]n2)cc1 [Compound 36, 2-n-butyl-5-(2'-ethoxycarbonylethyl)-6-propyl-3-[[2'-(1H-tetrazol-5-yl)biphenyl-4-yl]methyl]-pyrimidin-4-(3H)-one]	44.5	
CCOC(=O)Cc1c(C)nc(CC)n(Cc2ccc(-c3ccccc3-c3nnn[nH]3)cc2)c1=O [Compound 1, 2-ethyl-5-ethoxycarbonylmethyl-6-methyl-3-[[2'-(1H-tetrazol-5-yl)biphenyl-4-yl]methyl]-pyrimidin-4-(3H)-one]	9.05	
CCCCc1nc(C)c(CC(=O)N2CCCCCCC2)c(=O)n1Cc1ccc(-c2ccccc2-c2nn[nH]n2)cc1 [Compound 57, 2-n-butyl-5-heptamethyleneiminocarbonylmethyl-6-methyl-3-[[2'-(1H-tetrazol-5-yl)biphenyl-4-yl]methyl]-pyrimidin-4-(3H)-one]	3.6	
CCCCc1nc(C)c(CC(=O)N(CC)CC)c(=O)n1Cc1ccc(-c2ccccc2-c2nnn[nH]2)cc1 [Compound 21, 2-n-butyl-5-diethylaminocarbonylmethyl-6-methyl-3-[[2'-(1H-tetrazol-5-yl)biphenyl-4-yl]methyl]-pyrimidin-4-(3H)-one]	2.63	
CCCCc1nc(C)c(CC(=O)N2CCCCC2C(=O)OCC)c(=O)n1Cc1ccc(-c2ccccc2-c2nn[nH]n2)cc1 (centres unmarked) [Compound 53, 2-n-butyl-5-(2'-ethoxycarbonylpiperidinocarbonylmethyl)-6-methyl-3-[[2'-(1H-tetrazol-5-yl)biphenyl-4-yl]methyl]-pyrimidin-4-(3H)-one]	6.24	
CCCCc1nc(C)c(CCC(=O)N2CCC(C)CC2)c(=O)n1Cc1ccc(-c2ccccc2-c2nn[nH]n2)cc1 [Compound 64, 2-n-butyl-5-[2'-(4"-methylpiperidino)carbonylethyl]-6-methyl-3-[[2'-(1H-tetrazol-5-yl)biphenyl-4-yl]methyl]-pyrimidin-4-(3H)-one]		> 10000
CCCCc1nc(C)c(CC(=O)N2CCCC(C(=O)N(CC)CC)C2)c(=O)n1Cc1ccc(-c2ccccc2-c2nn[nH]n2)cc1 (centres unmarked) [Compound 55, 2-n-butyl-5-(3'-diethylaminocarbonylpiperidinocarbonylmethyl)-6-methyl-3-[[2'-(1H-tetrazol-5-yl)biphenyl-4-yl]methyl]-pyrimidin-4-(3H)-one]	3.64	
CCCCc1nc(=O)c(CCC(=O)O)c(CCC)n1Cc1ccc(-c2ccccc2-c2nn[nH]n2)cc1 [Compound 37, 2-n-butyl-5-(2'-carboxyethyl)-6-propyl-1-[[2'-(1H-tetrazol-5-yl)-biphenyl-4-yl]methyl]-pyrimidin-4-(1H)-one]	115	
CCCc1nc(C)c(CCC(=O)OCC)c(=O)n1Cc1ccc(-c2ccccc2-c2nn[nH]n2)cc1 [Compound 13, 2-n-propyl-5-(2'-ethoxycarbonylethyl)-6-methyl-3-[[2'-(1H-tetrazol-5-yl)biphenyl-4-yl]methyl]-pyrimidin-4-(3H)-one]	4.99	
CCCCc1nc(C)c(CCC(=O)N(CC)CC)c(=O)n1Cc1ccc(-c2ccccc2-c2nnn[nH]2)cc1 [Compound 27, 2-n-butyl-5-(2'-diethylaminocarbonylethyl)-6-methyl-3-[[2'-(1H-tetrazol-5-yl)biphenyl-4-yl]methyl]-pyrimidin-4-(3H )-one]	30.8	
CCCCc1nc(C)c(CC(=O)N2CCN(C(C)=O)CC2)c(=O)n1Cc1ccc(-c2ccccc2-c2nn[nH]n2)cc1 [Compound 77, 2-n-butyl-5-(4'-acetylpiperazinocarbonylmethyl)-6-methyl-3-[[2'-(1H-tetrazol-5-yl)biphenyl-4-yl]methyl]-pyrimidin-4-(3H)-one]	2.17	
CCCCc1nc(C)c(CC(=O)O)c(=O)n1Cc1ccc(-c2ccccc2C(=O)O)cc1 [Compound 39, 2-n-butyl-5-carboxymethyl-6-methyl-3-(2'-carboxybiphenyl-4-yl)methyl-pyrimidin-4-(3H)-one]	36.1	
CCc1nc(C)c(CC(=O)O)c(=O)n1Cc1ccc(-c2ccccc2-c2nnn[nH]2)cc1 [Compound 2, 2-ethyl-5-carboxymethyl-6-methyl-3-[[2'-(1H-tetrazol-5-yl)-biphenyl-4-yl]methyl]-pyrimidin-4-(3H)-one]	14.2	
CCCCc1nc(C)c(CC(=O)N2[C@H](C)CCC[C@@H]2C)c(=O)n1Cc1ccc(-c2ccccc2-c2nn[nH]n2)cc1 [Compound 50, 2-n-butyl-5-(cis-2',6'-dimethylpiperidinocarbonylmethyl)-6-methyl-3-[[2'-(1H-tetrazol-5-yl)biphenyl-4-yl]methyl]-pyrimidin-4-(3H)-one]	28.4	
CCc1nc(C)c(CC(=O)N(CC)CC)c(=O)n1Cc1ccc(-c2ccccc2-c2nnn[nH]2)cc1 [Compound 4, 2-ethyl-5-diethylaminocarbonylmethyl-6-methyl-3-[[2'-(1H-tetrazol-5-yl)biphenyl-4-yl]methyl]-pyrimidin-4-(3H)-one]	15.1	
CCCCc1nc(C)c(CC(=O)N2CCC[C@H]2C(N)=O)c(=O)n1Cc1ccc(-c2ccccc2-c2nn[nH]n2)cc1 [Compound 43, 2-n-butyl-5-[(S)-2'-aminocarbonylpyrrolidinocarbonylmethyl]-6-methyl-3-[[2'-(1H-tetrazol-5-yl)biphenyl-4-yl]methyl]-pyrimidin-4-(3H)-one]	2.08	
CCCCc1nc(C)c(CCC(=O)N2CCC(C(N)=O)CC2)c(=O)n1Cc1ccc(-c2ccccc2-c2nn[nH]n2)cc1 [Compound 68, 2-n-butyl-5-[2'-(4"-aminocarbonylpiperidino)carbonylethyl]-6-methyl-3-[[2'-(1H-tetrazol-5-yl)biphenyl-4-yl]methyl]-pyrimidin-4-(3H)-one]	2.29	
CCCCc1nc(C)c(CC(=O)OCC)c(=O)n1Cc1ccc(-c2ccccc2-c2nnn[nH]2)cc1 [Compound 17, 2-n-butyl-5-ethoxycarbonylmethyl-6-methyl-3-[[2'-(1H-tetrazol-5-yl)biphenyl-4-yl]methyl]-pyrimidin-4-(3H)-one]	4.63	
CCCCc1nc(C)c(CCC(=O)N2CCC[C@H]2C(=O)OC)c(=O)n1Cc1ccc(-c2ccccc2-c2nn[nH]n2)cc1 [Compound 59, 2-n-butyl-5-[2'-((S)-2"-methoxycarbonylpyrrolidino)-carbonylethyl]-6-methyl-3-[[2'-(1H-tetrazol-5-yl)biphenyl-4-yl]-methyl]-pyrimidin-4-(3H)-one]	3.36	
CCCCc1nc(C)c(CCC(=O)N2CCN(c3ccccn3)CC2)c(=O)n1Cc1ccc(-c2ccccc2-c2nn[nH]n2)cc1 [Compound 82, 2-n-butyl-5-[2'-(4"-(2'"-pyridyl)piperazino)carbonylethyl]-6-methyl-3-[[2'-(1H-tetrazol-5-yl)biphenyl-4-yl]methyl]-pyrimidin-4-(3H)-one]	53	
CCCCc1nc(C)c(CCC(=O)N2CCCC(C(=O)N(CC)CC)C2)c(=O)n1Cc1ccc(-c2ccccc2-c2nn[nH]n2)cc1 (centres unmarked) [Compound 69, 2-n-butyl-5-[2'-(3"-diethylaminocarbonylpiperidino)carbonylethyl]-6-methyl-3-[[2'-(1H-tetrazol-5-yl)biphenyl-4-yl]methyl]-pyrimidin-4-(3H)-one]	10.7	
CCc1nc(C)c(CCC(=O)N(CC)CC)c(=O)n1Cc1ccc(-c2ccccc2-c2nnn[nH]2)cc1 [Compound 8, 2-ethyl-5-(2'-diethylaminocarbonylethyl)-6-methyl-3-[[2'-(1H-tetrazol-5-yl)biphenyl-4-yl]methyl]-pyrimidin-4(3H)-one]	73.6	
CCCCc1nc(C)c(CC(=O)N2C(C)COCC2C)c(=O)n1Cc1ccc(-c2ccccc2-c2nn[nH]n2)cc1 (centres unmarked) [Compound 74, 2-n-butyl-5-(3',5'-dimethylmorpholinocarbonylmethyl)-6-methyl-3-[[2'-(1H-tetrazol-5-yl)biphenyl-4-yl]methyl]-pyrimidin-4-(3H)-one]	1.03	
CCCCc1nc(=O)c(CC(=O)O)c(C)n1Cc1ccc(-c2ccccc2-c2nnn[nH]2)cc1 [Compound 20, 2-n-butyl-5-carboxymethyl-6-methyl-1-[[2'-(1H-tetrazol-5-yl)-biphenyl-4-yl]methyl]-pyrimidin-4-(1H)-one]	8.53	
